These results are taken from patent publication US6750211B2, “Diimino compounds for use as modulators of cell regulation” (Emory University, priority 1999, dated 2004).

This experiment concerns J774A.1 cells. Kind of experiment: Suppression of the sphingosine "burst" on change to new medium. Format: cell-based, murine. The protocol:
J774A.1 cells (No. TIB 67, a murine macrophage-like transformed cell line) were obtained from the American Type Culture Collection (Rockville, Md.) and grown in DMEM and 10% FBS and sodium bicarbonate (3.7 g/l) in a spinner flask at 37° C. and an atmosphere of 5% CO2. Cells were passaged every two to three days by a 1:4 dilution with fresh medium to a density of approximately 2.5×10^5 cells/ml. Cells were used between passages 3 and 24.
Unless indicated differently, suspended cells were removed from the spinner flask, collected by gentle centrifugation (in a table top centrifuge), resuspended in new medium, added to 60 mm tissue culture dishes at 5 to 7.5×10^5 cells per 2 ml of medium. Under these conditions, the cells adhere to the dish rather than grow in suspension. The cells were incubated at 37° C., 5% CO2, for three days before beginning by removing the conditioned medium and adding fresh medium to initiate the “burst”.
After incubation of the cells, the medium was removed, 0.5 ml of ice-cold methanol added, and the cells scraped from the dishes with a rubber spatula. The plates were scraped again with 0.4 ml of deionized water, followed by 0.4 ml of methanol. Cells and washes were pooled in 13×100 mm test tubes, 200 to 300 pmol of C20-sphinganine added as an internal standard, and the long-chain bases extracted- and analyzed by HPLC (as described by Merrill, A. H., Jr., et al., (1988) Anal. Biochem. 171, 373-381) with C20-sphinganine as an internal standard.

Take `N` [NH4^+, reference compound]: the “share of the suppression of the sphingosine burst accounted for by the ammonia concentration of conditioned medium” value (at most time points, calculated from FIGS. 6A and B, FIG. 7) was “greater than 50%”. Further, the “suppression of the sphingosine burst (in words)” value (sphingosine measured after adding medium to J774 cells) is reported as “shown to suppress the sphingosine burst”.
On to `N=C1NC(=N)C(CCCCN)NC1CCCCN` (single isomer, unassigned) [fraction III, 2,6-bis-(ω-aminobutyl)-3,5-diimino-piperazine], for which, under “Mus musculus, J774.A1, titration with purified fraction III added with DMEM, concentration approximated from TNBS amine estimate, FIG. 9, read-out: apparent concentration for 50% suppression of the sphingosine burst”, the IC50 was 1000 to 3000 µM. Besides, the “fold more concentrated than conditioned medium (volume to volume comparison of amount needed to suppress the burst)” value (compared with conditioned medium) is listed as “greater than 200 fold”. For the same compound, the volume giving 50% suppression of the sphingosine burst (purified fraction III (amine concentration about 200 mM) added with DMEM, FIG. 9) came to 30 µL.
